Results from ChEMBL document CHEMBL3098003, “Structure-based design of 2-aminopyridine oxazolidinones as potent and selective tankyrase inhibitors” (ACS Med Chem Lett, 2013).
Values belong to the molecule of their own block, whether it stands above or below them. The source made the active and inactive calls. The calls are words filed in the database; no cut-off is given here.

Experiments:
[1] = AUC in Sprague-Dawley rat at 2 mg/kg, po; assay type: ADME, organism-based; set-up: dose 2 mg/kg, route oral; conditions: plasma
[2] = target: Wee1-like protein kinase (Homo sapiens) (UniProt P30291); experiment: Inhibition of WEE1 (unknown origin) at 1 uM after 1 hr
[3] = target: Interferon-induced, double-stranded RNA-activated protein kinase (Homo sapiens) (UniProt P19525); experiment: Inhibition of EIF2AK2 (unknown origin) at 1 uM after 1 hr
[4] = target: Ribosomal protein S6 kinase alpha-1 (Homo sapiens) (UniProt Q15418); experiment: Inhibition of RPS6KA1 (unknown origin) at 1 uM after 1 hr
[5] = target: Cyclin-dependent kinase 2 (Homo sapiens) (UniProt P24941); experiment: Inhibition of CDK2 (unknown origin) at 1 uM after 1 hr
[6] = target: Mitogen-activated protein kinase kinase kinase kinase 4 (Homo sapiens) (UniProt O95819); experiment: Inhibition of MAP4K4 (unknown origin) at 1 uM after 1 hr
Chain of Mitogen-activated protein kinase kinase kinase kinase 4 (Homo sapiens) (O95819 2-1239 limits assumed): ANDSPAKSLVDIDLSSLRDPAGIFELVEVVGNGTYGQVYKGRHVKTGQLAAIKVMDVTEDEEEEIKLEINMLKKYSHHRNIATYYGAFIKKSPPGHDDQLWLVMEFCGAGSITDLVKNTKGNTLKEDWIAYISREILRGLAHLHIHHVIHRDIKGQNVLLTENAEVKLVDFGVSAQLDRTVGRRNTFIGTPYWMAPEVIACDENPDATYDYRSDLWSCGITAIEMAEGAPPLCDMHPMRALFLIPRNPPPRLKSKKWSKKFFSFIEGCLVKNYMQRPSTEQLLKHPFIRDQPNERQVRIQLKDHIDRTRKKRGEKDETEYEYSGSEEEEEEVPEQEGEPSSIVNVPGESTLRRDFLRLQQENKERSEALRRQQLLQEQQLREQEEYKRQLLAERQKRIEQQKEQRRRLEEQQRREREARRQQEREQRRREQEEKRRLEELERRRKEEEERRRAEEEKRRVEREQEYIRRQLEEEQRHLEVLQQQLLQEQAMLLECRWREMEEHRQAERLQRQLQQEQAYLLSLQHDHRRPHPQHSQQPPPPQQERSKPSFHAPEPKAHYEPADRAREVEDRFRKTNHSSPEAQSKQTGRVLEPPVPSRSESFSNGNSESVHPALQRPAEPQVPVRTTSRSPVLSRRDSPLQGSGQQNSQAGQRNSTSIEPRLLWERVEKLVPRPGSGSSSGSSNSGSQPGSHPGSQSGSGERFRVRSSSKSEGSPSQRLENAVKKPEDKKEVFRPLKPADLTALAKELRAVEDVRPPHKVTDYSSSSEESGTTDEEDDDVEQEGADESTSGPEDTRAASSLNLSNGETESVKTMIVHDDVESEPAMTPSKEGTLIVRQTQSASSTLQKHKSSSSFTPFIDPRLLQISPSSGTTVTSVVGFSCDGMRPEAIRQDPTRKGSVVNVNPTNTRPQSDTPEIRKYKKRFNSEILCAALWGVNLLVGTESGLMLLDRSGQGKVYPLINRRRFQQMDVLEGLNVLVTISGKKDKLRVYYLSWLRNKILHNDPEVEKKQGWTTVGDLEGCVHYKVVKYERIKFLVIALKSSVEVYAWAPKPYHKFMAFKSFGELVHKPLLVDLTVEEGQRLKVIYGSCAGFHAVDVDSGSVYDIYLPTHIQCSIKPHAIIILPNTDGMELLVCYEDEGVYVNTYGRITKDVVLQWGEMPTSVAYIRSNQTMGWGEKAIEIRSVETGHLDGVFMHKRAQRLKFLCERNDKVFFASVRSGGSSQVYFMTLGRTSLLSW

[7] = target: Serine/threonine-protein kinase PLK4 (Homo sapiens) (UniProt O00444); experiment: Inhibition of PLK4 (unknown origin) at 1 uM after 1 hr
Chain of Serine/threonine-protein kinase PLK4 (Homo sapiens) (O00444 whole entry): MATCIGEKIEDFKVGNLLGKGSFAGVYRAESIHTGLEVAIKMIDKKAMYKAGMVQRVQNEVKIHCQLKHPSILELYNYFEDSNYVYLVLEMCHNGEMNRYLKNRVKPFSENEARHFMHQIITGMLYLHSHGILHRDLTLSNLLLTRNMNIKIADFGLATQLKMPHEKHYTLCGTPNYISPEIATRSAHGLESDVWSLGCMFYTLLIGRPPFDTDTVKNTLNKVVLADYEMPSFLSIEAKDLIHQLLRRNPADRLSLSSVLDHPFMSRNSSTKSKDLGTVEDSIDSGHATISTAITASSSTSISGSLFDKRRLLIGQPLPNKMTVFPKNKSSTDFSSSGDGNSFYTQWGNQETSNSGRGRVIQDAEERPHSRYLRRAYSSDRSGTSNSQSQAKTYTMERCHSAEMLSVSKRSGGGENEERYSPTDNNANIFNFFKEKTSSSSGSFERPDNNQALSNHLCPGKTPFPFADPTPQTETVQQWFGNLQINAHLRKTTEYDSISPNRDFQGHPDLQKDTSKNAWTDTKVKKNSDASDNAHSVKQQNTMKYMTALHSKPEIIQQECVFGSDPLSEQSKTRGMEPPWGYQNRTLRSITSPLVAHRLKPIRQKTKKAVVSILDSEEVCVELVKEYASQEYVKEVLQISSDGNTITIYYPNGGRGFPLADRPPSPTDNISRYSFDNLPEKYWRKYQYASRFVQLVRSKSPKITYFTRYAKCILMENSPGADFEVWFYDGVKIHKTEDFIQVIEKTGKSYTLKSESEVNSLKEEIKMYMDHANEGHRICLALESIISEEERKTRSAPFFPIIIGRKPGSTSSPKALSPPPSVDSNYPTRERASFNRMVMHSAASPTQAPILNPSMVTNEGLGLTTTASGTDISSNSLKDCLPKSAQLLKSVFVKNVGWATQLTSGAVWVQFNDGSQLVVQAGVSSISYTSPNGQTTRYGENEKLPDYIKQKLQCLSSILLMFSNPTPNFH

[8] = target: Non-receptor tyrosine-protein kinase TYK2 (Homo sapiens) (UniProt P29597); experiment: Inhibition of TYK2 (unknown origin) at 1 uM after 1 hr
[9] = target: TGF-beta receptor type-2 (Homo sapiens) (UniProt P37173); experiment: Inhibition of TGFBR2 (unknown origin) at 1 uM after 1 hr
Chain of TGF-beta receptor type-2 (Homo sapiens) (P37173 whole entry): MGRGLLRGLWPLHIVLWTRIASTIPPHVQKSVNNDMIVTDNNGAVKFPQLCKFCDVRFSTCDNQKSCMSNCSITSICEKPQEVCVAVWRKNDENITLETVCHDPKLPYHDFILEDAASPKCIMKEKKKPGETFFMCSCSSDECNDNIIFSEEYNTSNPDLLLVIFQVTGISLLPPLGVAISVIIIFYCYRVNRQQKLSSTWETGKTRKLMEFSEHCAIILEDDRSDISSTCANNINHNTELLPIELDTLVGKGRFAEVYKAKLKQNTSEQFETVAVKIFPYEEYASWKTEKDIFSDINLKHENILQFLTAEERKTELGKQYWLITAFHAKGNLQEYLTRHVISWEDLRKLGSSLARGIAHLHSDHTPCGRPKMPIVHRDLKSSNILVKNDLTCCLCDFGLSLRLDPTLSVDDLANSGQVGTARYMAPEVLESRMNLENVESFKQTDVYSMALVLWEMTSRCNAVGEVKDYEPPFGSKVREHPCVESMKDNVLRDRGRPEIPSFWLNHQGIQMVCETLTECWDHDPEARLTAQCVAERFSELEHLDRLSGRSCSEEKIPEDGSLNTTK

[10] = target: Interleukin-1 receptor-associated kinase 4 (Homo sapiens) (UniProt Q9NWZ3); experiment: Inhibition of IRAK4 (unknown origin) at 1 uM after 1 hr
Chain of Interleukin-1 receptor-associated kinase 4 (Homo sapiens) (Q9NWZ3 whole entry): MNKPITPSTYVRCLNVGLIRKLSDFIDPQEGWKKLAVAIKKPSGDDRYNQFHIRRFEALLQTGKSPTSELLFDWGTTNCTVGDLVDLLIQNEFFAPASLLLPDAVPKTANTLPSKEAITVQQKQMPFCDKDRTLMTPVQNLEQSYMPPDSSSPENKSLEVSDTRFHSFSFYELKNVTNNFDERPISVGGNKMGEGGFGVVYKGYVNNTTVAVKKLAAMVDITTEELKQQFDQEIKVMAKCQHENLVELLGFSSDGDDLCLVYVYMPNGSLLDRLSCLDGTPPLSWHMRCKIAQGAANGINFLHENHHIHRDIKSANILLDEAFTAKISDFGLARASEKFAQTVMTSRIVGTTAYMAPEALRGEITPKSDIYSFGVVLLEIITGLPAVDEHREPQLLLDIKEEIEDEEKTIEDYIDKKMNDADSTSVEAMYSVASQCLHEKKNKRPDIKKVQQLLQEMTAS

[11] = target: Tyrosine-protein kinase JAK2 (Homo sapiens) (UniProt O60674); experiment: Inhibition of JAK2 (unknown origin) at 1 uM after 1 hr
[12] = target: Calcium/calmodulin-dependent protein kinase type II subunit delta (Homo sapiens) (UniProt Q13557); experiment: Inhibition of CAMK2D (unknown origin) at 1 uM after 1 hr
[13] = target: Homeodomain-interacting protein kinase 1 (Homo sapiens) (UniProt Q86Z02); experiment: Inhibition of HIPK1 (unknown origin) at 1 uM after 1 hr
[14] = Half life in CD1 mouse at 30 mg/kg, po; assay type: ADME, organism-based; set-up: dose 30 mg/kg, route oral; conditions: in vivo
[15] = target: Serine/threonine-protein kinase D2 (Homo sapiens) (UniProt Q9BZL6); experiment: Inhibition of PRKD2 (unknown origin) at 1 uM after 1 hr
[16] = target: Proto-oncogene tyrosine-protein kinase Src (Homo sapiens) (UniProt P12931); experiment: Inhibition of SRC (unknown origin) at 1 uM after 1 hr
[17] = tested on: Salmonella typhimurium; experiment: Genotoxicity in Salmonella typhimurium by microAmes assay in presence of S9 fraction; assay type: toxicity, organism-based; conditions: salmonella enterica subsp. enterica serovar typhimurium
[18] = target: Mitogen-activated protein kinase kinase kinase 9 (Homo sapiens) (UniProt P80192); experiment: Inhibition of MAP3K9 (unknown origin) at 1 uM after 1 hr
[19] = target: Epithelial discoidin domain-containing receptor 1 (Homo sapiens) (UniProt Q08345); experiment: Inhibition of DDR1 (unknown origin) at 1 uM after 1 hr relative to control
[20] = target: Rho-associated protein kinase 2 (Homo sapiens) (UniProt O75116); experiment: Inhibition of ROCK2 (unknown origin) at 1 uM after 1 hr
[21] = Cmax in Sprague-Dawley rat at 2 mg/kg, po; assay type: ADME, organism-based; set-up: dose 2 mg/kg, route oral; conditions: in vivo
[22] = target: Serine/threonine-protein kinase 3 (Homo sapiens) (UniProt Q13188); experiment: Inhibition of STK3 (unknown origin) at 1 uM after 1 hr
[23] = target: Tyrosine-protein kinase Lck (Homo sapiens) (UniProt P06239); experiment: Inhibition of LCK (unknown origin) at 1 uM after 1 hr
[24] = target: Mitogen-activated protein kinase 14 (Homo sapiens) (UniProt Q16539); experiment: Inhibition of MAPK14 (unknown origin) at 1 uM after 1 hr
[25] = Oral bioavailability in Sprague-Dawley rat at 2 mg/kg; assay type: ADME, organism-based; conditions: in vivo
[26] = target: Ephrin type-B receptor 3 (Homo sapiens) (UniProt P54753); experiment: Inhibition of EPHB3 (unknown origin) at 1 uM after 1 hr
[27] = Cmax in CD1 mouse at 30 mg/kg, po; assay type: ADME, organism-based; set-up: dose 30 mg/kg, route oral; conditions: in vivo
[28] = target: Phosphatidylinositol 4,5-bisphosphate 3-kinase catalytic subunit delta isoform (Homo sapiens) (UniProt O00329); experiment: Inhibition of PIK3CD (unknown origin) at 1 uM after 1 hr
Chain of Phosphatidylinositol 4,5-bisphosphate 3-kinase catalytic subunit delta isoform (Homo sapiens) (O00329 whole entry, canonical isoform): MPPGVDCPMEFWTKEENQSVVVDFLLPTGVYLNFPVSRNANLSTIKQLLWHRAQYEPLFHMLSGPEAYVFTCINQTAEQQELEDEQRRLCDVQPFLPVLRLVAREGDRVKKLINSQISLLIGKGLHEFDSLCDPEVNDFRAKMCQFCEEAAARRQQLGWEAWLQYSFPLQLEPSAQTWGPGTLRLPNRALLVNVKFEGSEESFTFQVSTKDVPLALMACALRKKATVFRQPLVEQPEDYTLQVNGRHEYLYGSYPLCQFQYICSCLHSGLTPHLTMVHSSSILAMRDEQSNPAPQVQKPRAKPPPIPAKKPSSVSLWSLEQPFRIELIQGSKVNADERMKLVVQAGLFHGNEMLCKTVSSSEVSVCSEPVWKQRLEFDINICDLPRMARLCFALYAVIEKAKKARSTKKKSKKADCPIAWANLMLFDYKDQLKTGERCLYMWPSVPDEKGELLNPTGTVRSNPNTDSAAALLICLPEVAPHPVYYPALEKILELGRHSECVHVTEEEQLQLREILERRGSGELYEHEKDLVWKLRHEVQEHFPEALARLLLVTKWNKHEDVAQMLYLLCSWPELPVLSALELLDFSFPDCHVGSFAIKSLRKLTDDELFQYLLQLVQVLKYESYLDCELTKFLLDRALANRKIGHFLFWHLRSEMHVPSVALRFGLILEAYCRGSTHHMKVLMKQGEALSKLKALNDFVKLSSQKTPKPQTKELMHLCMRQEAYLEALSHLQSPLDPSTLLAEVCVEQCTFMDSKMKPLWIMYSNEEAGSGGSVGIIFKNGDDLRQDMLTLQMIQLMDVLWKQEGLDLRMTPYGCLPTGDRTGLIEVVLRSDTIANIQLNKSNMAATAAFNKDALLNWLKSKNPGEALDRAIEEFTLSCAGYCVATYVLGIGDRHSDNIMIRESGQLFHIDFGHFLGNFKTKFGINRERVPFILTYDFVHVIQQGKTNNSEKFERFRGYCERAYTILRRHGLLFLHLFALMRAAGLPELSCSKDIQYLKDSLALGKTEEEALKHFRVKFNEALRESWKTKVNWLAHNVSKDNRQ

[29] = target: High affinity nerve growth factor receptor (Homo sapiens) (UniProt P04629); experiment: Inhibition of NTRK1 (unknown origin) at 1 uM after 1 hr
[30] = AUC in CD1 mouse at 30 mg/kg, po; assay type: ADME, organism-based; set-up: dose 30 mg/kg, route oral; conditions: plasma
[31] = Half life in Sprague-Dawley rat at 2 mg/kg, po; assay type: ADME, organism-based; set-up: dose 2 mg/kg, route oral; conditions: in vivo
[32] = target: Poly [ADP-ribose] polymerase 2 (Homo sapiens, UniProt Q9UGN5); experiment: Inhibition of PARP2 (unknown origin)
[33] = Clearance in Sprague-Dawley rat at 0.5 mg/kg, iv; assay type: ADME, organism-based; set-up: dose 0.5 mg/kg, route intravenous; conditions: in vivo
[34] = target: Dual specificity protein kinase CLK4 (Homo sapiens) (UniProt Q9HAZ1); experiment: Inhibition of CLK4 (unknown origin) at 1 uM after 1 hr
[35] = target: Serine/threonine-protein kinase Nek4 (Homo sapiens) (UniProt P51957); experiment: Inhibition of NEK4 (unknown origin) at 1 uM after 1 hr
[36] = target: Death-associated protein kinase 1 (Homo sapiens) (UniProt P53355); experiment: Inhibition of DAPK1 (unknown origin) at 1 uM after 1 hr
[37] = tested on: Salmonella typhimurium; experiment: Genotoxicity in Salmonella typhimurium by microAmes assay; assay type: toxicity, organism-based; conditions: salmonella enterica subsp. enterica serovar typhimurium
[38] = target: MAP kinase-interacting serine/threonine-protein kinase 1 (Homo sapiens) (UniProt Q9BUB5); experiment: Inhibition of MKNK1 (unknown origin) at 1 uM after 1 hr
[39] = target: Tyrosine-protein kinase Fyn (Homo sapiens) (UniProt P06241); experiment: Inhibition of FYN (unknown origin) at 1 uM after 1 hr
Chain of Tyrosine-protein kinase Fyn (Homo sapiens) (P06241 2-537 limits assumed): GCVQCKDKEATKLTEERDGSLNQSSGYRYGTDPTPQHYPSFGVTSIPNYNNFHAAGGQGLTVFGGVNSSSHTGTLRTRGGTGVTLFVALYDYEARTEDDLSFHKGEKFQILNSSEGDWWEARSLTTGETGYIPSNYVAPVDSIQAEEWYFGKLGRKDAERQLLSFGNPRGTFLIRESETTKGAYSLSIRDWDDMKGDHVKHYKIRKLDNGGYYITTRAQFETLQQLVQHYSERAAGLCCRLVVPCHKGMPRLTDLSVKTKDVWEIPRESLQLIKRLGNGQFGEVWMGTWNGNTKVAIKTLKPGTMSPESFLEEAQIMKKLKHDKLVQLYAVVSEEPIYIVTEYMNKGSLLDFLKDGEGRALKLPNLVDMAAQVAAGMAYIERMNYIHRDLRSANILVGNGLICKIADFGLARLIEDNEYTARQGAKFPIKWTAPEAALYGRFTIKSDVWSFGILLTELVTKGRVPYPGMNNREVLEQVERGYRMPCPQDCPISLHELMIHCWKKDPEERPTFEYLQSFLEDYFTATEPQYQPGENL

[40] = Elimination half life in Sprague-Dawley rat at 0.5 mg/kg, iv; assay type: ADME, organism-based; set-up: dose 0.5 mg/kg, route intravenous; conditions: in vivo, read-out: beta t1/2 (converted)
[41] = target: Casein kinase I isoform delta (Homo sapiens) (UniProt P48730); experiment: Inhibition of CSNK1D (unknown origin) at 1 uM after 1 hr
[42] = target: Poly [ADP-ribose] polymerase 1 (Homo sapiens, UniProt P09874); experiment: Inhibition of PARP1 (unknown origin)
[43] = Volume of distribution at steady state in Sprague-Dawley rat at 0.5 mg/kg, iv; assay type: ADME, organism-based; set-up: dose 0.5 mg/kg, route intravenous; conditions: in vivo, read-out: Vdss
[44] = target: Mitogen-activated protein kinase kinase kinase 1 (Homo sapiens) (UniProt Q13233); experiment: Inhibition of MAP3K1 (unknown origin) at 1 uM after 1 hr
[45] = target: cAMP-dependent protein kinase catalytic subunit alpha (Homo sapiens) (UniProt P17612); experiment: Inhibition of PRKACA (unknown origin) at 1 uM after 1 hr

AUC [1]: 2.71 µM·h
inhibition [2]: inactive
inhibition [3]: inactive
inhibition [4]: inactive
inhibition [5]: inactive
inhibition [6]: inactive
inhibition [7]: inactive
inhibition [8]: inactive
inhibition [9]: inactive
inhibition [10]: inactive
inhibition [11]: inactive
inhibition [12]: inactive
inhibition [13]: inactive
half-life [14]: 3.7 h
inhibition [15]: inactive
inhibition [16]: inactive
inhibition [18]: inactive
inhibition [19]: inactive
inhibition [20]: inactive
Cmax [21]: 0.37 µM
inhibition [22]: inactive
inhibition [23]: inactive
inhibition [24]: inactive
bioavailability [25]: 29%
inhibition [26]: inactive
Cmax [27]: 7.88 µM
inhibition [28]: inactive
inhibition [29]: inactive
AUC [30]: 63.3 µM·h
half-life [31]: 4.6 h
IC50 [32]: > 170 µM
clearance [33]: 8.67 mL/min/kg
inhibition [34]: inactive
inhibition [35]: inactive
inhibition [38]: inactive
inhibition [39]: inactive
half-life [40]: 4.3 h
inhibition [41]: inactive
IC50 [42]: > 85 µM
Vd [43]: 2.32 L/kg
inhibition [44]: inactive
inhibition [45]: inactive
SMILES: CC1(C)OC(=O)N(c2ccc(-c3cnc(N)c(-c4ncccn4)c3)cc2)[C@H]1c1ccccc1
Activity [17]: Toxic
inhibition [36]: inactive
Activity [37]: Toxic

SMILES: CC1(C)OC(=O)N([C@H]2CC[C@H](c3cnc(N)c(-c4ncccn4)c3)CC2)[C@H]1c1ccccc1
AUC [1]: 1.98 µM·h
inhibition [2]: inactive
inhibition [3]: inactive
inhibition [4]: inactive
inhibition [5]: inactive
inhibition [6]: inactive
inhibition [7]: inactive
inhibition [8]: inactive
inhibition [9]: inactive
inhibition [10]: inactive
inhibition [11]: inactive
inhibition [12]: inactive
inhibition [13]: inactive
half-life [14]: 3.5 h
inhibition [15]: inactive
inhibition [16]: inactive
Activity [17]: Non-toxic
inhibition [18]: inactive
inhibition [19]: 18%
inhibition [20]: inactive
Cmax [21]: 0.45 µM
inhibition [22]: inactive
inhibition [23]: inactive
inhibition [24]: inactive
bioavailability [25]: 33%
inhibition [26]: inactive
Cmax [27]: 6.09 µM
inhibition [28]: inactive
inhibition [29]: inactive
AUC [30]: 36.3 µM·h
half-life [31]: 2.9 h
IC50 [32]: > 170 µM
clearance [33]: 12.5 mL/min/kg
inhibition [34]: inactive
inhibition [35]: inactive
inhibition [36]: inactive
Activity [37]: Non-toxic
inhibition [38]: inactive
inhibition [39]: inactive
half-life [40]: 3.6 h
inhibition [41]: inactive
IC50 [42]: > 85 µM
Vd [43]: 2.85 L/kg
inhibition [44]: inactive
inhibition [45]: inactive
